For one series, the system named is CaCo-2 cell layer. The series can be described thus: Condition of the cell layer by transepithelial electrical resistance (TEER) in CaCo-2 screening. Type of series: cell-based, human. As to the method: The bioavailability of NASPs in combination with gastrointestinal epithelial barrier permeation enhancers of interest were studied using the CaCo-2 cell model screening. This method utilizes a human colon carcinoma cell line that expresses a wide range of transporter proteins on its cell membranes. Cell layers are grown on a membrane surface that separates two compartments (24-well plate). An example of the experimental setup for these experiments is illustrated in FIG. 1. Selected NASP and gastrointestinal epithelial barrier permeation enhancer samples were dissolved in RPMI cell medium at a concentration of 1 mg/mL and applied onto the cells in the apical compartment. Cells were incubated at 37° C. in 5% CO2. Medium samples were removed from the basolateral and apical compartment at different time points. The condition of the cell layer was monitored by measurement of the transepithelial electrical resistance (TEER). Samples were analyzed by thrombin generation assay (CAT). NASP concentration was calculated based on activity from CAT assay. Experimental details of thrombin generation assays and other blood coagulation assays are described in U.S. patent application Ser. No. 11/140,504, filed on May 27, 2005, now U.S. Pat. No. 7,767,654, and U.S. patent application Ser. No. 13/006,396, filed on Jan. 13, 2011, the disclosures of which is herein incorporated by reference. […]

Another series concerns CaCo-2 cell model. The series is described as follows: CaCo-2 cell model bioavailability / resorption screening of NASPs with permeation enhancers. Format: in vitro ADME, human. The settings on record: for Average Percent Resorption at 8 hours: Table 5; for basolateral concentrations in the presence of a gastrointestinal epithelial barrier permeation enhancer: compared with absence of enhancer, figures. As to the method: The bioavailability of NASPs in combination with gastrointestinal epithelial barrier permeation enhancers of interest were studied using the CaCo-2 cell model screening. This method utilizes a human colon carcinoma cell line that expresses a wide range of transporter proteins on its cell membranes. Cell layers are grown on a membrane surface that separates two compartments (24-well plate). An example of the experimental setup for these experiments is illustrated in FIG. 1. Selected NASP and gastrointestinal epithelial barrier permeation enhancer samples were dissolved in RPMI cell medium at a concentration of 1 mg/mL and applied onto the cells in the apical compartment. Cells were incubated at 37° C. in 5% CO2. Medium samples were removed from the basolateral and apical compartment at different time points. The condition of the cell layer was monitored by measurement of the transepithelial electrical resistance (TEER). Samples were analyzed by thrombin generation assay (CAT). NASP concentration was calculated based on activity from CAT assay. Experimental details of thrombin generation assays and other blood coagulation assays are described in U.S. patent application Ser. No. 11/140,504, filed on May 27, 2005, now U.S. Pat. No. 7,767,654, and U.S. patent application Ser. No. 13/006,396, filed on Jan. 13, 2011, the disclosures of which is herein incorporated by reference.
All NASP and gastrointestinal epithelial barrier permeation enhancer samples were diluted in such a way that the sample concentration was in the range of increasing procoagulant activity. Based on the initial load concentration values, apical and basolateral concentrations were determined at 2 hour increments (e.g., 2 hours, 4 hours, 6 hours, 8 hours, including 24 hours). Based on the determined basolateral concentrations, the percent resorption was determined for each combination of compounds (i.e., NASP and gastrointestinal epithelial barrier permeation enhancers).
FIGS. 4-8 illustrate resorption of some natural NASPs of interest in Caco-2 cell models as determined by TGA and liquid chromatography/mass spectrometry in combination with different gastrointestinal epithelial barrier permeation enhancers. FIGS. 9 and 10 illustrate resorption of some synthetic NASPs of interest in Caco-2 cell models as determined by TGA and liquid chromatography/mass spectrometry in combination with different gastrointestinal epithelial barrier permeation enhancers.
(In general: Caco-2 cells form a polarised layer with tight junctions and transporters.)

The mark [1] stands for this setting: Bromelain/Chitosan 0.5 mg/mL: 3%.
[2] abbreviates: in the presence of bromelain at 8 hours.
Where [3] appears, read: in the presence of deoxycholate at 8 hours.

On to bromelain, for which, in the series with CaCo-2 cell layer (enhancer alone, no NASP), the “transepithelial electrical resistance after treatment with the permeation enhancer alone” value is listed as “recovery of the transepithelial electrical resistance”.

For the substance “Sulfated 6-Carboxyicodextrin [Sulfated 6-Carboxyicodextrin 24 kD]”, the “Average Percent Resorption at 8 hours” value with CaCo-2 cell model (Bromelain 0.5 mg/mL) was 10.0%; in the series with CaCo-2 cell model (setting [1]), 36.8%; with CaCo-2 cell model (Chitosan 3%) it was 2.6%; in the series on CaCo-2 cell model (Deoxycholate 0.06%), 4.9%; in the series with CaCo-2 cell model (Deoxycholate 0.08%), 14.7%; with CaCo-2 cell model (No enhancer), 1.6%.

On to Sulfated β-cyclodextrin, for which the “Average Percent Resorption at 8 hours” value in the series on CaCo-2 cell model (Bromelain 0.5 mg/mL) turned out to be 24.7%; with CaCo-2 cell model (setting [1]), 59.8%; in the series with CaCo-2 cell model (Chitosan 3%) it was 15.6%; in the series with CaCo-2 cell model (Deoxycholate 0.06%), 20.6%; in the series with CaCo-2 cell model (Deoxycholate 0.08%) it was 36.1%; with CaCo-2 cell model (No enhancer) it was 0%. Also, the “Average Percent Resorption at 8 hours” value in the series with CaCo-2 cell model (Sodium Caprate 12 mM) was 19.3%. Further, in the series on CaCo-2 cell model, the “basolateral concentrations in the presence of a gastrointestinal epithelial barrier permeation enhancer” value is “increased”. Also, the “resorption in Caco-2 cell models” value in the series with CaCo-2 cell model (setting [2]), in the series on CaCo-2 cell model (setting [3]) and in the series on CaCo-2 cell model (in the presence of sodium caprate at 8 hours) was “increased substantially” in each case.

As for Sulfated Maltopentose, the “transepithelial electrical resistance after removal of the permeation enhancer and the NASP” value with CaCo-2 cell layer (after removal of enhancer and maltopentaose) was “increased”. Also, the “Average Percent Resorption at 8 hours” value is reported as 48.6% with CaCo-2 cell model (Bromelain 0.5 mg/mL); 158.8% in the series with CaCo-2 cell model (setting [1]); 35.7% in the series with CaCo-2 cell model (Chitosan 3%); 67.4% in the series with CaCo-2 cell model (Deoxycholate 0.06%); 113.2% in the series on CaCo-2 cell model (Deoxycholate 0.08%); 0% in the series with CaCo-2 cell model (No enhancer). Moreover, in the series with CaCo-2 cell model (Sodium Caprate 12 mM), the “Average Percent Resorption at 8 hours” value amounted to 13.1%. Also, the “basolateral concentrations in the presence of a gastrointestinal epithelial barrier permeation enhancer” value in the series with CaCo-2 cell model is “increased”. In addition, the “resorption in Caco-2 cell models” value in the series on CaCo-2 cell model (setting [2]) is “increased substantially”; in the series with CaCo-2 cell model (in the presence of chitosan) it was “strong increased resorption”; with CaCo-2 cell model (setting [3]), “increased substantially”; with CaCo-2 cell model (in the presence of sodium caprate), “strong increased resorption”.

As for “Sulfated 6-Carboxyicodextrin [Sulfated 6-Carboxyicodextrin 14 kD]”, the “Average Percent Resorption at 8 hours” value in the series with CaCo-2 cell model (Bromelain 0.5 mg/mL) was 17.7%; with CaCo-2 cell model (setting [1]) it was 44.5%; in the series on CaCo-2 cell model (Chitosan 3%), 5.4%; in the series on CaCo-2 cell model (Deoxycholate 0.08%), 27.2%; in the series on CaCo-2 cell model (No enhancer), 3.8%.

The values are drawn from patent US8846620B2, “Resorption enhancers as additives to improve the oral formulation of non-anticoagulant sulfated polysaccharides” (Baxter International Inc., priority 2011, dated 2014).
